This passage reports TGI and GI50 results from PubChem BioAssay (NCI).

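Tested at 5 concentrations; 48 h exposure; 96-well plates; endpoints linearly interpolated, else capped at highest concentration. GI50 = concentration required for 50% inhibition of growth. The concentration for full growth arrest is given as TGI.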

Test in all cases: inhibition of tumour cell growth, NCI panel, 48 h
The subject of test [1] is HCT-116 colon.
The test system of test [2] is HCT-15 colon.
Test [3] deals with HOP-92 NSCLC.
Test [4] deals with NCI-H226 lung.
The test system of test [5] is NCI-H522 lung.
Test [6] deals with OVCAR-5 ovarian.
The test system of test [7] is OVCAR-8 ovarian.
Test [8] deals with SK-MEL-28 melanoma.
For test [9], the system named is SK-OV-3 ovarian.
Test [10] deals with SR leukemia.
In test [11] the test system is TK-10 renal.
For test [12], the system named is SF-268 CNS.

As for `Nc1nc(Cl)cc(NCC2(CCO)CCC2)n1`, the TGI in test [1], in [2], in [3], in [4], in [5] and in test [6] was greater than 100 µM in each case. In addition, the TGI in test [7], in test [8], in [9], in [10] and in test [11] was greater than 100 µM throughout.
On to `CN1CCC2(CC1)SSC1(CCN(C)CC1)S2`, for which the TGI in test [1], in test [2], in test [3], in test [6], in [7] and in [8] was greater than 100 µM in each case. The TGI in test [9] and in test [10] was greater than 100 µM each time.
Take `Cc1ccc2c(c1)nc1n2C(c2c(F)cccc2F)SC1` (stereo not drawn): the TGI in test [1] is 72.3 µM; in [2], 82.4 µM; in test [4], greater than 100 µM; in [5], greater than 100 µM; in test [6] it was greater than 100 µM; in [7], greater than 100 µM. Further, the TGI in test [12] was greater than 100 µM; in test [8] it was greater than 100 µM; in test [9], greater than 100 µM; in test [10] it was 87.9 µM; in test [11] it was greater than 100 µM.
Consider `Cn1c(-c2ccc(C=O)o2)ccc1-c1ccc(C=O)o1`, for which the TGI in [1] is 36.7 µM; in test [2] it was greater than 100 µM; in test [3], greater than 100 µM; in test [4], greater than 100 µM; in test [6], greater than 100 µM; in test [7], greater than 100 µM. Also, the TGI in [8], in [9], in [10] and in test [11] was greater than 100 µM each time.
Take `CC(=O)Nc1nc(C)c(S(=O)(=O)NC(=O)NC2NC(=O)NC2=O)s1` (stereo not drawn): the TGI in [1], in test [2], in [3], in test [5], in test [6] and in test [7] was greater than 100 µM in each case. Besides, the TGI in test [12], in test [8], in test [9], in test [10] and in test [11] was greater than 100 µM throughout.
Take `O=S1(=O)c2ccccc2N(O)C2=NCCN21`: the TGI in test [1], in test [3], in test [4], in test [5], in test [6] and in test [7] was greater than 100 µM throughout. Moreover, the TGI in test [12], in test [8], in [9], in [10] and in test [11] was greater than 100 µM each time.
Consider `CCOP(=O)(CC(=O)C1CC1)OCC`, for which the TGI in test [1], in test [2], in [4], in [5], in [6] and in test [7] was greater than 100 µM each time. In addition, the TGI in [12], in test [8], in test [9], in test [10] and in test [11] was greater than 100 µM in each case.
On to `COC(=O)C(Cc1c[nH]c2ccccc12)NC(=O)C(Cc1cnc[nH]1)NC(=O)C1CCC(=O)N1C(=O)OCc1ccccc1` (stereo not drawn), for which the TGI in test [1], in [3], in test [4], in [6], in test [7] and in test [8] was greater than 100 µM in each case. Further, the TGI in test [10] and in [11] was greater than 100 µM throughout.
Consider `FC1(F)ON2CCc3ccccc3C2[C@H]1c1ccccc1` (stereo partly drawn), for which the TGI in test [1], in test [2], in test [4], in [5], in test [6] and in test [7] was greater than 100 µM in each case. In addition, the TGI in test [12], in [8], in test [9], in test [10] and in test [11] was greater than 100 µM in each case. For the same molecule, the GI50 in test [2], in test [5], in [6], in test [12], in test [8] and in [9] was greater than 100 µM throughout. The GI50 in test [10] and in [11] was greater than 100 µM throughout.
Consider `O=[N+]([O-])c1ncc(N(CCO)CCO)s1`, for which the TGI in [1] was greater than 100 µM; in test [2] it was greater than 100 µM; in test [4], greater than 100 µM; in test [5] it was 35.6 µM; in test [6], greater than 100 µM; in test [7], greater than 100 µM. In addition, the TGI in test [12] is greater than 100 µM; in test [8], 33.2 µM; in test [9], greater than 100 µM; in [10] it was greater than 100 µM; in [11] it was 79.5 µM.
Regarding `COC(=O)CCc1ccc(CCC(=O)OC)cc1`, the TGI in [1], in [2], in test [3], in test [5], in test [6] and in [7] was greater than 100 µM in each case. In addition, the TGI in test [12], in [8], in [9], in test [10] and in test [11] was greater than 100 µM throughout.
For the molecule `COC1OC2COC1(OCc1ccccc1)C1OC(C)(C)OC21` (stereo not drawn), the TGI in [1], in test [2], in [4], in test [5], in test [6] and in [7] was greater than 100 µM in each case. Moreover, the TGI in test [12], in test [8], in [9], in test [10] and in [11] was greater than 100 µM each time.
